Common to all, as to type: binding
In assay [1] the target is R1 (scFv fluorescence-activating protein, FAP). As to the kind of experiment: fluorescence. To be noted: read-out: Coumarin-TO.
The target in assay [2] is HL1.0.1-TO1 (scFv fluorescence-activating protein, FAP). Nature of the assay: fluorescence. To be noted: read-out: TO1-2p-Cy5.
Assay [3] deals with R1 (scFv fluorescence-activating protein, FAP). As to the kind of experiment: fluorescence ligand depletion titration with […] R1. To be noted: read-out: TO.
For assay [4], the target named is HL1.0.1-TO1 (scFv fluorescence-activating protein, FAP). Nature of the assay: fluorescence ligand depletion titration with […] FAP. To be noted: read-out: TO1-2p.

Take coumarin-TO: the Kd in assay [1] stood at 1.1 nM. On to TO1-2p-Cy5, for which the Kd in assay [2] is 12 nM. Take `CN1/C(=C/c2cc[n+](C)c3ccccc23)Sc2ccccc21` [TO]: in assay [3], the Kd turned out to be 0.17 nM. In the case of TO1-2p, the Kd in assay [4] worked out at 0.3 nM.

The values above are taken from paper PMC4520264 (Organic & biomolecular chemistry, 2015).
